Where two headings read alike, the source gives them in different places. Where a SMILES comes first, the peptide text is derived from it. [ ]: non-standard residue; d: D form. Pip = O=C(O)[C@@H]1CCCCN1; AEEA = NCCOCCOCC(=O)O
Assays:
APCE = target: T1, APCE (Homo sapiens, UniProt Q12884); experiment: APCE enzyme assay with fluorescent AMC substrates, competitive inhibition constants; format: biochemical; details: for Selectivity, Ki (DPPIV)/Ki (APCE/FAP): ratio of Ki values
T1 construct: APCE lacks the first 23 amino terminal residues of FAP; tissue Sylvan Goldman Blood Institute (source of the plasma); host or cells: human plasma
T1 sequence (Q12884 24-760 limits assumed): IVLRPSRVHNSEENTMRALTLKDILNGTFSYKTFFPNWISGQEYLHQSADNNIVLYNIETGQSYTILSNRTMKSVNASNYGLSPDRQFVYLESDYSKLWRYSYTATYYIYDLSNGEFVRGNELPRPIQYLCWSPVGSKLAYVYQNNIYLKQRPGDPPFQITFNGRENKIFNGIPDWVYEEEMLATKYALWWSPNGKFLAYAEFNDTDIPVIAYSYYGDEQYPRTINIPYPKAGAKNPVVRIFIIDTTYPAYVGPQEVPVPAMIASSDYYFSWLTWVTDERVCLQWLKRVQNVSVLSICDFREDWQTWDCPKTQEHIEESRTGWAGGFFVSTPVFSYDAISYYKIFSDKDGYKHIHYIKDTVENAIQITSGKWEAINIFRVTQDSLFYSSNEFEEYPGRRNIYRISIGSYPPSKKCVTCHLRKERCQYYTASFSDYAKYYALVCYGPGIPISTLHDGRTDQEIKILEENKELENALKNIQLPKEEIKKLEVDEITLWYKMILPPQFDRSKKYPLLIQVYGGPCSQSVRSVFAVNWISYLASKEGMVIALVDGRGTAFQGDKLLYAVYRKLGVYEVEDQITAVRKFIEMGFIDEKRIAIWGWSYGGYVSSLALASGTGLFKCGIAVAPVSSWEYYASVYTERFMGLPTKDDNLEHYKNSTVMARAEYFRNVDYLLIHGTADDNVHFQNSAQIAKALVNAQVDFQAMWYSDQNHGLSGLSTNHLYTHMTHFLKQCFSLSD
Procedure: (§1) Fluorescence was monitored with time at excitation and emission wavelengths of 360 and 460 nm using a black-sided, 96-well plate in a BIO-TEK FL600 fluorescence plate reader. For standard curves, dilutions of AMC (7-amino-4-methylcoumarin) were prepared in the same assay buffer and corresponding fluorescence was measured. The substrates in five different concentrations were mixed with four different concentrations of inhibitors around the expected Ki values; the enzyme was added and enzymatically released AMC fluorescence was recorded. […] Therefore, enzyme kinetic parameters were computed by fitting data to the following equation, employing the program PRISM, GraphPad: […]

DPPIV = DPPIV (Homo sapiens, UniProt P27487); experiment: DPPIV enzyme assay with fluorescent AMC substrates, inhibition constants; format: biochemical
Procedure: as §1

[1] = target: T2, cell surface FAP of W138 fibroblast cells (Homo sapiens, UniProt Q12884); experiment: Cell surface FAP activity of fibroblasts (cleavage of Ac-Arg-peg-Gly-Pro-AMC); format: cell-based
T2 construct: FAP proteolytic activity expressed on the surface of living fibroblast cells; endogenous in cells; host or cells: W138 (WI-38) fibroblasts
T2 sequence (Q12884 1-760): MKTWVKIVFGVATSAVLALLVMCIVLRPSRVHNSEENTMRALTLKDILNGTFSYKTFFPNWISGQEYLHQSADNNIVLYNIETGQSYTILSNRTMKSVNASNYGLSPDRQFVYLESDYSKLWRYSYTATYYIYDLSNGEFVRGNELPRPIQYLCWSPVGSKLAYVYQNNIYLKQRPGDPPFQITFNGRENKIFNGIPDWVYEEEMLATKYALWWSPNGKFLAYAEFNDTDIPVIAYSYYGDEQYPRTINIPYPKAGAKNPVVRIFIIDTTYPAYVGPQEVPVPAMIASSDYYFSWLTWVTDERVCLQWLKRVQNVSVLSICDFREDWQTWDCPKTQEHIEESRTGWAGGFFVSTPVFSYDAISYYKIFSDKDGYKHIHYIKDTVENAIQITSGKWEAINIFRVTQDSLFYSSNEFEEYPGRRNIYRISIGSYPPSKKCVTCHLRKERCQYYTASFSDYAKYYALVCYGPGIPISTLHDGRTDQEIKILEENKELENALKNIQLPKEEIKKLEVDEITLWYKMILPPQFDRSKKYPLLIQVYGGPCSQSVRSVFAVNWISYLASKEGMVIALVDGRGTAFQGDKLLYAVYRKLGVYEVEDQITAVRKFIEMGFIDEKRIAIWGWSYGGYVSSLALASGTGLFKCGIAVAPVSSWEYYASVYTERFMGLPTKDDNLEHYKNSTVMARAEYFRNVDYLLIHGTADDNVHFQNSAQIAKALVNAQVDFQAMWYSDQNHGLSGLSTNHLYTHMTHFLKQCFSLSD
Procedure: FIG. 6 is a graph showing cell surface FAP activity of fibroblasts. W138 Cells were seeded into opaque black 96 well cell culture plates and grown to confluency. Cells were washed with Hanks Balanced Salt Solution after which either the inhibitor compound Ac-Arg-(8-amino-3,6-dioxaoctanoyl)-D-Ala-L-boroPro, or buffer, was added. The FAP substrate, Ac—R-peg-G-P-AMC, was added and fluorescence was measured with time. The inhibitor was added to one set of cells 2 hours after substrate addition (see arrow). O.D. 360/460 was converted to APCE Units using a standard curve.
FIG. 6, for example, illustrates that FAP proteolytic activity expressed on the surface of living fibroblast cells can readily be inhibited by the inhibitor Ac-Arg-peg-D-Ala-boroPro (a.k.a. M83). We measured FAP activity by use of a synthetic substrate, Ac-Arg-peg-Gly-Pro-amidomethyl coumarin, which produces fluorescence upon cleavage of the bond between proline and the amidomethylcoumarin by FAP. In these experiments we made a treatment and then measured any fluorescence generated over several hours. The figure compares three treatments: • (1) “Control”: This curve represents addition of the substrate to live cells bathed in culture media with no other treatment. The synthetic substrate cleavage is observed as reflected by measurement of the fluorescence generated that is expressed as APCE Units.

[2] = target: T3, cell surface FAP of MDA-MB-435 breast cancer cells (Homo sapiens, UniProt Q12884); experiment: Cell surface FAP activity of breast cancer cells (cleavage of Ac-Arg-peg-Gly-Pro-AMC); format: cell-based; details: live MDA-MB-435 breast cancer cells, inhibitor added with substrate
T3 construct: cultured breast cancer cells also have FAP activity on their cell surface; endogenous in cells; host or cells: MDA-MB-435 cells
T3 sequence (Q12884 1-760): T2 sequence (Q12884 1-760)
Procedure: FIG. 7 is a graph showing cell surface FAP activity of breast cancer cells. MDA-MB-435 cells were seeded into opaque black 96 well cell culture plates and grown to confluency. Cells were washed with Hanks Balanced Salt solution after which either the inhibitor compound Ac-Arg-(8-amino-3,6-dioxaoctanoyl)-D-Ala-L-boroPro, or buffer, was added. The FAP substrate, Ac—R-peg-G-P-AMC, was added and fluorescence measured with time. O.D. 360/460 was converted to APCE Units using a standard curve.
In FIG. 7, the experiment was performed in exactly the same way as for FIG. 6, except live breast cancer cells were used.

[3] = best-fit value ± standard error, read-out: Ki, inhibition of APCE activity

Sequence of DPPIV (P27487 whole entry, species assumed): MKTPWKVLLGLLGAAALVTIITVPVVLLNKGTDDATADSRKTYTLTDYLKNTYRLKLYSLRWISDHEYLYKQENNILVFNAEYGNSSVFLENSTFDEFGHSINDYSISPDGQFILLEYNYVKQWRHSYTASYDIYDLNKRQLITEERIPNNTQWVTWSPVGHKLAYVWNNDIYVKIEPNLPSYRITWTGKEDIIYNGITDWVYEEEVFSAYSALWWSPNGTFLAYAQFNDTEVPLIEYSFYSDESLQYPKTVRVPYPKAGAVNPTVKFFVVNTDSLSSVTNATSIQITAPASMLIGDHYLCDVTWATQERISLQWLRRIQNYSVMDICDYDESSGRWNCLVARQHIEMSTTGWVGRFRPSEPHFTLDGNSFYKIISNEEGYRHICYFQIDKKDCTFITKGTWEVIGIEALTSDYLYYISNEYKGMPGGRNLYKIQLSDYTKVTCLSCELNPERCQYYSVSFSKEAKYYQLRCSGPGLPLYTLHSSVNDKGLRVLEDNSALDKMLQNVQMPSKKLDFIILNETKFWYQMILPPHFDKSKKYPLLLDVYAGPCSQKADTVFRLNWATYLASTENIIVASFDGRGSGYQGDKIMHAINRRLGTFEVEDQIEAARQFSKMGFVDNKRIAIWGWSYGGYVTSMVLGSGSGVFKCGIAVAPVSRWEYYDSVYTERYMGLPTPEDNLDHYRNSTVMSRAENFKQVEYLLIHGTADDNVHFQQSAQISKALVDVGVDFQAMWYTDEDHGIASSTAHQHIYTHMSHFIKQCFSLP

| Compound | Ki (APCE; [3]) | Selectivity, Ki (DPPIV)/Ki (APCE/FAP) (APCE) | Ki (APCE; read-out: APCE/FAP Ki) | Ki (DPPIV) | further results |
| --- | --- | --- | --- | --- | --- |
| CC(=O)NC(CCCNC(=N)N)C(=O)NCC(=O)NCC(=O)N1CCCC1B(O)O (racemic) [Ac-Arg-Gly-Gly-DL-boroPro] |  | 14.9 | 0.0229 µM | 0.341 µM |  |
| Ac-Arg-peg-D-Ala-DL(75:25%)-boroPro |  |  | 0.0183 µM |  |  |
| N=C(N)NCCC[C@H](NC(=O)[C@@H](N)Cc1ccccc1)C(=O)NCCOCCOCC(=O)NCC(=O)N1CCCC[C@H]1C(N)=O [Inhibitor (11), FR-peg-G-pipecolinamide] (H-FR[AEEA]G[Pip]-NH2) | > 1000 µM |  |  |  |  |
| CC(=O)NC(CCCNC(=N)N)C(=O)NCCOCCOCC(=O)NC(C)C(=O)N1CCCC1B(O)O (single isomer, unassigned) [Ac-Arg-peg-D-Ala-L-boroPro, acetyl-arg-8-amino-3,6-dioxaoctanoic acid-D-ala-L-boroPro] |  | 1075 | 0.0057 µM | 6.13 µM | Cell surface FAP activity (substrate hydrolysis, fluorescence as APCE Units) ([1]; 10 uM inhibitor added to fibroblasts 2 hrs after substrate, listed as Ac-Arg-(8-amino-3,6-dioxaoctanoyl)-D-Ala-L-boroPro): inhibited cell surface FAP immediately; Cell surface FAP activity (substrate hydrolysis, fluorescence as APCE Units) ([1]; 10 uM inhibitor added to fibroblasts 2 hrs after substrate, listed as M83): immediately and completely arrested; Cell surface FAP activity (substrate hydrolysis, fluorescence as APCE Units) ([1]; 10 uM inhibitor added to live fibroblasts simultaneously with substrate, followed 5 hours): no substrate hydrolysis occurs; Cell surface FAP activity (substrate hydrolysis, fluorescence as APCE Units) [2]: completely inhibited |
| CC(=O)NC(CCCNC(=N)N)C(=O)NCCOCCOCC(=O)NC(C)C(=O)N1CCCC1B(O)O (single isomer, unassigned) [Ac-Arg-peg-D-Ala-D-boroPro] |  | 108 |  |  |  |
| CC(=O)N[C@@H](CCCNC(=N)N)C(=O)NCCOCCOCC(=O)N[C@H](CC(=O)O)C(=O)N1CCC[C@H]1B(O)O [Ac-Arg-peg-D-Asp-L-boroPro] |  | 5.2 | 1.38 µM | 7.13 µM |  |
| CC(=O)NC(CCCNC(=N)N)C(=O)NCCOCCOCC(=O)NC(C)C(=O)N1CCCC1B(O)O [Ac-Arg-peg-D-Ala-DL(50:50%)-boroPro] |  | 1176 | 0.0095 µM | 11.2 µM |  |
| Ac-Arg-peg-D-Ala-DL(25:75%)-boroPro |  |  | 0.0077 µM |  |  |
| CC(=O)N[C@@H](CCCNC(=N)N)C(=O)NCC(=O)NCC(=O)N1CCC[C@H]1B(O)O [Ac-Arg-Gly-Gly-L-boroPro] |  | 18.7 | 0.0172 µM | 0.322 µM |  |

More lines, main results first:

| Ki (APCE; [3]) | Selectivity, Ki (DPPIV)/Ki (APCE/FAP) (APCE) | Ki (APCE; read-out: APCE/FAP Ki) | Ki (DPPIV) | Compound | further results |
| --- | --- | --- | --- | --- | --- |
| 53.8 ± 4.9 µM |  |  |  | FR-peg-G-[r]fluoropyrrolidide [Inhibitor (8)] |  |
|  | 371 | 0.0031 µM | 1.15 µM | CC(=O)NC(CCCNC(=N)N)C(=O)NCCOCCOCC(=O)NCC(=O)N1CCCC1B(O)O (racemic) [Ac-Arg-peg-Gly-DL-boroPro] |  |
| 703 ± 68 µM |  |  |  | FG-peg-G-pyrrolidide [Inhibitor (6)] |  |
| 55.3 ± 5.3 µM |  |  |  | FR-peg-G-[s]fluoropyrrolidide [Inhibitor (9)] |  |
|  | 244 | 0.0018 µM | 0.44 µM | CC(=O)N[C@@H](CCCNC(=N)N)C(=O)NCCOCCOCC(=O)NCC(=O)N1CCC[C@H]1B(O)O [Ac-Arg-peg-Gly-L-boroPro] |  |
|  | 319 |  |  | CC(=O)N[C@@H](CCCNC(=N)N)C(=O)NCCOCCOCC(=O)N[C@@H](CO)C(=O)NCC(=O)N1CCC[C@H]1B(O)O [Ac-Arg-peg-Ser-Gly-L-boroPro] |  |
| 67.7 ± 5.8 µM |  |  |  | FR-peg-G-pyrrolidide [Inhibitor (5)] |  |

— patent US10174077B2, “Method of inhibiting activity of cell surface fibroblast activation protein alpha” (The Board of Regents of the University of Oklahoma, priority 2006, dated 2019)
